Results taken from ChEMBL document CHEMBL4265951, “Multi-target-directed ligands for Alzheimer's disease: Discovery of chromone-based monoamine oxidase/cholinesterase inhibitors” (Eur J Med Chem, 2018).
Active and inactive are the calls of the source. The rule behind the calls is not given here.

Columns and labels:
[1] = test system: SH-SY5Y; assay: Cytotoxicity against human SH-SY5Y cells assessed as reduction in cell viability at 0.1 to 50 uM after 48 hrs by resazurin reduction assay; assay type: cell-based
[2] = biological target: T1, Amine oxidase [flavin-containing] B (Homo sapiens, UniProt P27338); assay: biochemical; assay type: cell-based
T1 sequence (P27338 whole entry): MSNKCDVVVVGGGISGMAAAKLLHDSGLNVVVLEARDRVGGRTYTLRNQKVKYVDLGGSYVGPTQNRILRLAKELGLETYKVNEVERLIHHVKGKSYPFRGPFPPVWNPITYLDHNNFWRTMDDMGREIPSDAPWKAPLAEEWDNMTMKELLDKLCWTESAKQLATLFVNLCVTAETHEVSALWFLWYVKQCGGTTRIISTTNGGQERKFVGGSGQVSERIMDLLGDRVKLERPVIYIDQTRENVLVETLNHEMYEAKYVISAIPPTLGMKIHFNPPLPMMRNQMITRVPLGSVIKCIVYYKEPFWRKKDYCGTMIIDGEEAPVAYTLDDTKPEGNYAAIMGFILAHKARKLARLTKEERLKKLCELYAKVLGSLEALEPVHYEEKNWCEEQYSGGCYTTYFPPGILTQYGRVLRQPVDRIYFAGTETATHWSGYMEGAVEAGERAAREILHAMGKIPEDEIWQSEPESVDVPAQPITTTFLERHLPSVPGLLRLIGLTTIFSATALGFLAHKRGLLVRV
Description: Inhibition of human recombinant MAOB expressed in baculovirus infected BTI-TN-5B1- 4 cells using p-tyramine as substrate assessed as decrease in H2O2 production by amplex red-based fluorescence assay

[3] = in vitro; conditions: PAMPA
Description: Effective permeability of the compound at 1 mg/ml after 4 hrs by BBB-PAMPA method

[4] = test system: HepG2; assay: Cytotoxicity against human HepG2 cells assessed as reduction in cell viability at 0.1 to 50 uM after 48 hrs by SRB assay; assay type: cell-based; conditions: hepg2, 48 h
[5] = biological target: T2, Amine oxidase [flavin-containing] A (Homo sapiens, UniProt P21397); assay: Inhibition of human recombinant microsomal MAOA expressed in baculovirus infected BTI-TN-5B1- 4 cells using p-tyramine as substrate assessed as decrease in H2O2 production at 10 uM by amplex red-based fluorescence assay
T2 sequence (P21397 whole entry): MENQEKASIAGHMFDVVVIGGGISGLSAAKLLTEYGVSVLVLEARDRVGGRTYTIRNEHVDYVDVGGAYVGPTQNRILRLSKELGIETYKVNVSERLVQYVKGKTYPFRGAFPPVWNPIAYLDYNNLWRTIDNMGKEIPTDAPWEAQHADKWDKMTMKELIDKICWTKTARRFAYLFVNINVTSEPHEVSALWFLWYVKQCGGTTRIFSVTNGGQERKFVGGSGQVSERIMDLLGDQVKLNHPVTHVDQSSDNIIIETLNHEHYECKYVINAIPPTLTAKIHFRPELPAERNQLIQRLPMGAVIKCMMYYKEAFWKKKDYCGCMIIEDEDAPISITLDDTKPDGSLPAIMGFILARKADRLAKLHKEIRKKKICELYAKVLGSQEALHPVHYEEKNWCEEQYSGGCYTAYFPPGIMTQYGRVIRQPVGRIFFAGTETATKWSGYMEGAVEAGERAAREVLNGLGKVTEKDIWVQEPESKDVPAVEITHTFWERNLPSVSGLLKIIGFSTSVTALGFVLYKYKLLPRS

[6] = test system: HepG2; assay: Cytotoxicity against human HepG2 cells assessed as reduction in cell viability at 0.1 to 50 uM after 48 hrs by resazurin reduction assay; assay type: cell-based; conditions: hepg2, 48 h
[7] = biological target: T3, Acetylcholinesterase (Homo sapiens, UniProt P22303); assay: Inhibition of human AChE using acetylthiocholine iodide as substrate pretreated for 5 mins followed by substrate addition measured after 5 mins by Ellman's method
T3 sequence (P22303 whole entry): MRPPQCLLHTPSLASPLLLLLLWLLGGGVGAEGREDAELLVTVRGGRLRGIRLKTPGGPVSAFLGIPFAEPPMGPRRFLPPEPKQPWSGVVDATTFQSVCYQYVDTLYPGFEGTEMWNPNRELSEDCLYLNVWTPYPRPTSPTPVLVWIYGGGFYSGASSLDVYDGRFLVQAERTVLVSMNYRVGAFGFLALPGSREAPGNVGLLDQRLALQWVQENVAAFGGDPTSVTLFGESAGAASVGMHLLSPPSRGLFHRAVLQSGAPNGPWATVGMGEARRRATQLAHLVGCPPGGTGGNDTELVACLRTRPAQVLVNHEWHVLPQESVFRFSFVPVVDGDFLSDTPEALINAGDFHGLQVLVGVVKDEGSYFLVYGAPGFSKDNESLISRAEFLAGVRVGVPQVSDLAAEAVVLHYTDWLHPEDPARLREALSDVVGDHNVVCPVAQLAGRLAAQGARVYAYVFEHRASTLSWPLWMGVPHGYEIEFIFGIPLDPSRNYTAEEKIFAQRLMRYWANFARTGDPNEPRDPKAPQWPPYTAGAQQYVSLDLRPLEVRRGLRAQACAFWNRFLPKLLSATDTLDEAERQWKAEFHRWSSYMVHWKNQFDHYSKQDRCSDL

[8] = test system: SH-SY5Y; assay: Cytotoxicity against human SH-SY5Y cells assessed as reduction in cell viability at 0.1 to 50 uM after 48 hrs by SRB assay; assay type: cell-based
[9] = biological target: Beta-secretase 1 (Homo sapiens, UniProt P56817); assay: Inhibition of human BACE1 using rhodamine-EVNLDAEFK-quencher as substrate after 60 mins by FRET assay
Chain of Beta-secretase 1 (P56817 whole entry): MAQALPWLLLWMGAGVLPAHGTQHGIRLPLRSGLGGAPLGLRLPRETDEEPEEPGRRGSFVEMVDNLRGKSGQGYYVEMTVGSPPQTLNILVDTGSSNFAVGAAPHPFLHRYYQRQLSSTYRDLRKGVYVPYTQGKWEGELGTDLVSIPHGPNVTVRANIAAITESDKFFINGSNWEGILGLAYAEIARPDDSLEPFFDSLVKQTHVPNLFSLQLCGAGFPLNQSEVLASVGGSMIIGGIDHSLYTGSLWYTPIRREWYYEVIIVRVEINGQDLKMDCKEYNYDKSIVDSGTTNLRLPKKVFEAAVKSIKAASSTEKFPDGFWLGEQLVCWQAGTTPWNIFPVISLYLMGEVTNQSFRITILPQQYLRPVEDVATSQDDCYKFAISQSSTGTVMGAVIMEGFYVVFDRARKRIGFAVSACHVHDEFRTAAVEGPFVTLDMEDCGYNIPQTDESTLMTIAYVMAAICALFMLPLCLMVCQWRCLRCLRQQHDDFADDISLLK

[10] = biological target: T4, Cholinesterase (Homo sapiens, UniProt P06276); assay: Inhibition of human serum BuChE at 10 uM using butyrylthiocholine as substrate pretreated for 5 mins followed by substrate addition measured after 5 mins by Ellman's method
T4 sequence (P06276 whole entry): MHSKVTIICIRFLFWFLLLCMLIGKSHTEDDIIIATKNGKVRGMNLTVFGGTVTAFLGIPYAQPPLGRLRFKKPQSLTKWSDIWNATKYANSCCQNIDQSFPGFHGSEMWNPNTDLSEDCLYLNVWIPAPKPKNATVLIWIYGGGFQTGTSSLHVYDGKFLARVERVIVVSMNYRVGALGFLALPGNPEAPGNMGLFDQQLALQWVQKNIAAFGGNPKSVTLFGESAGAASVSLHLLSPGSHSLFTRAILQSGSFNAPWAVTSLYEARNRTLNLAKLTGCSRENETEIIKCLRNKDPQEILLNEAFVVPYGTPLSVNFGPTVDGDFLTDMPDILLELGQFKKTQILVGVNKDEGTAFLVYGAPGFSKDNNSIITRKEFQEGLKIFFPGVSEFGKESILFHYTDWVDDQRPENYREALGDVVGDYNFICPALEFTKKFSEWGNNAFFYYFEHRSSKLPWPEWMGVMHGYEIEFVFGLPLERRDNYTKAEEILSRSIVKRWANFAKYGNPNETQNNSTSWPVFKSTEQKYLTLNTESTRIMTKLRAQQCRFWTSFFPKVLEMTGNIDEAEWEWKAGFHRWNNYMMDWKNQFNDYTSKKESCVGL

[11] = biological target: T2, Amine oxidase [flavin-containing] A; assay: Inhibition of human recombinant microsomal MAOA expressed in baculovirus infected BTI-TN-5B1- 4 cells using p-tyramine as substrate assessed as decrease in H2O2 production at 100 uM by amplex red-based fluorescence assay
[12] = in vitro; conditions: PAMPA; remark: listed apart in the source
Description: Effective permeability of the compound at 25 ug/ml after 18 hrs by BBB-PAMPA method

[13] = biological target: T1, Amine oxidase [flavin-containing] B; assay: Reversible competitive inhibition of human recombinant microsomal MAOB expressed in baculovirus infected BTI-TN-5B1- 4 cells using p-tyramine as substrate assessed as decrease in H2O2 production by Dixon plot analysis
[14] = biological target: T1, Amine oxidase [flavin-containing] B; assay: Competitive inhibition of human recombinant microsomal MAOB expressed in baculovirus infected BTI-TN-5B1- 4 cells using p-tyramine as substrate assessed as decrease in H2O2 production at 500 to 1000 nM by Lineweaver-Burk plot analysis
[15] = biological target: T4, Cholinesterase; assay: Inhibition of human serum BuChE using butyrylthiocholine as substrate pretreated for 5 mins followed by substrate addition measured after 5 mins by Ellman's method
[16] = biological target: T2, Amine oxidase [flavin-containing] A; assay: biochemical
Description: Inhibition of human recombinant microsomal MAOA expressed in baculovirus infected BTI-TN-5B1- 4 cells using p-tyramine as substrate assessed as decrease in H2O2 production by amplex red-based fluorescence assay

[17] = Cytotoxicity against human SH-SY5Y cells assessed as cell mass at 50 uM after 48 hrs by SRB assay relative to control; assay type: cell-based; conditions: read-out: Activity
[18] = biological target: T3, Acetylcholinesterase; assay: Mixed type inhibition of human AChE using acetylthiocholine iodide as substrate pretreated for 5 mins followed by substrate addition measured after 5 mins by Dixon plot analysis
[19] = test system: SH-SY5Y; assay: Cytotoxicity against human SH-SY5Y cells assessed as reduction in cell viability at 25 to 50 uM after 48 hrs by resazurin reduction assay; assay type: cell-based
[20] = biological target: T2, Amine oxidase [flavin-containing] A; assay: Competitive inhibition of human recombinant microsomal MAOA expressed in baculovirus infected BTI-TN-5B1- 4 cells using p-tyramine as substrate assessed as decrease in H2O2 production at 1000 to 2000 nM by Lineweaver-Burk plot analysis
[21] = biological target: T2, Amine oxidase [flavin-containing] A; assay: Reversible inhibition of human recombinant microsomal MAOA expressed in baculovirus infected BTI-TN-5B1- 4 cells using p-tyramine as substrate assessed as decrease in H2O2 production at IC80 after 60 mins; conditions: 1 h
[22] = biological target: T3, Acetylcholinesterase; assay: Mixed type inhibition of human AChE at 0.05 to 0.20 uM using acetylthiocholine iodide as substrate pretreated for 5 mins followed by substrate addition measured after 5 mins by Lineweaver burk plot analysis
[23] = biological target: T2, Amine oxidase [flavin-containing] A; assay: Reversible competitive inhibition of human recombinant microsomal MAOA expressed in baculovirus infected BTI-TN-5B1- 4 cells using p-tyramine as substrate assessed as decrease in H2O2 production by Dixon plot analysis

Compound: O=C(O)/C=C/c1ccc2occ(C(=O)Nc3ccccc3)c(=O)c2c1
- Activity [1]: Non-Toxic
- IC50 [2]: 4660 nM
- Papp at 4 h, 1 mg/ml [3]: 1.2 ×10⁻⁶ cm/s
- Activity [4]: Non-Toxic
- inhibition (INH) [5]: Not Active
- Activity [6]: Non-Toxic
- IC50 [7]: 9250 nM
- Activity [8]: Non-Toxic
- IC50 [9]: > 10000 nM
- inhibition [10]: inactive

Compound: C[C@H](NCc1ccc(OCc2cccc(F)c2)cc1)C(N)=O [SAFINAMIDE]
- inhibition (INH) [11]: Not Active

Compound: C[C@]12CCC(=O)C=C1CC[C@@H]1[C@@H]2[C@@H](O)C[C@]2(C=O)[C@@H](C(=O)CO)CC[C@@H]12 [ALDOSTERONE]
- Papp at 4 h, 1 mg/ml [3]: 1 ×10⁻⁶ cm/s
- Papp at 18 h, 25 ug/ml [12]: 1.2 ×10⁻⁶ cm/s

Compound: CN(C)CCOC(=O)/C=C/c1ccc2occ(C(=O)Nc3ccccc3)c(=O)c2c1
- Activity [1]: Non-Toxic
- IC50 [2]: 630 nM
- Papp at 4 h, 1 mg/ml [3]: 6.4 ×10⁻⁶ cm/s
- Activity [4]: Non-Toxic
- inhibition (INH) [5]: Not Active
- Ki [13]: 337 nM
- inhibition (INH) [14]: Active
- Activity [6]: Non-Toxic
- IC50 [7]: 3690 nM
- IC50 [15]: 4320 nM
- Activity [8]: Non-Toxic
- IC50 [9]: > 10000 nM

Compound: Cc1ccc(NC(=O)c2cc(=O)c3cc(/C=C/C(=O)OCCN(C)C)ccc3o2)cc1
- IC50 [16]: 940 nM
- IC50 [2]: 3810 nM
- Papp at 4 h, 1 mg/ml [3]: 5.2 ×10⁻⁶ cm/s
- viability at 48 h, 50 µM [17]: 44%
- Ki [18]: 190 nM
- Activity [19]: Toxic
- inhibition (INH) [20]: Active
- Ki [13]: 478 nM
- inhibition (INH) [14]: Active
- inhibition (INH) [21]: Active
- IC50 [7]: 210 nM
- inhibition [22]: Active
- IC50 [9]: > 10000 nM
- inhibition [10]: inactive
- Ki [23]: 57 nM
